Legend:
clinical = details: human, plasma, oral
[1] = Pharmacokinetic analysis of sorafenib in plasma of patients; format: in vivo, human; details: compared with previous studies of 400 mg b.i.d. sorafenib
[2] = Day 1 of Cycle 2 vs Day 5 of Cycle 1
[3] = geometric mean, with vs without sorafenib

| circulating concentrations of sorafenib when dosed in combination with cyclophosphamide and letrozole [1] | Compound | AUC(0-t) (clinical; AUC(0–24) Cycle 1, geometric mean, Day 5, Cycle 1, without sorafenib) [ng·h/mL] | AUC(0-t) (clinical; AUC(0–24) Cycle 2, geometric mean, Day 1, Cycle 2, with 400 mg bid sorafenib) [ng·h/mL] | average decrease in t1/2 when co-administered with sorafenib [2] [%] | average decrease of AUC (0–24) when co-administered with sorafenib [2] [%] | average reduction of Cmax when co-administered with sorafenib [2] [%] | AUC(0–24) Ratio cycles 2/1, geometric mean [3] | Cmax Ratio cycles 2/1, geometric mean [3] |
| --- | --- | --- | --- | --- | --- | --- | --- | --- |
|  | O=P1(N(CCCl)CCCl)NCCCO1 (centres unmarked) [cyclophosphamide] | 16700 | 11900 | 27 | 29 | 12 | 0.71 | 0.88 |
| not significantly affected | CNC(=O)c1cc(Oc2ccc(NC(=O)Nc3ccc(Cl)c(C(F)(F)F)c3)cc2)ccn1 [sorafenib, Sorafenib] |  |  |  |  |  |  |  |

Reference: publication PMC4453610 (British Journal of Cancer, 2014)
